Test results from patent US10336687B2, “Selected amide of Y-hydroxybutyric acid and uses thereof in the treatment of alcohol misuse” (priority 2015, dated 2019).
Read-outs that look alike come from different tables or passages of the source. Marks after values point to notes of the source that are not given here.

Columns and labels:
mGluR5 [1] = molecular target: T1, mGluR5 (Rattus norvegicus, UniProt P31424); assay: Increase in K+-evoked glutamate outflow induced by the mGluR5 receptor agonist CHPG in hippocampal slices; type: cell-based; settings: CHPG 100 μM
T1 construct: from tissue; host or cells: hippocampal slices
T1 sequence (P31424 21-1203): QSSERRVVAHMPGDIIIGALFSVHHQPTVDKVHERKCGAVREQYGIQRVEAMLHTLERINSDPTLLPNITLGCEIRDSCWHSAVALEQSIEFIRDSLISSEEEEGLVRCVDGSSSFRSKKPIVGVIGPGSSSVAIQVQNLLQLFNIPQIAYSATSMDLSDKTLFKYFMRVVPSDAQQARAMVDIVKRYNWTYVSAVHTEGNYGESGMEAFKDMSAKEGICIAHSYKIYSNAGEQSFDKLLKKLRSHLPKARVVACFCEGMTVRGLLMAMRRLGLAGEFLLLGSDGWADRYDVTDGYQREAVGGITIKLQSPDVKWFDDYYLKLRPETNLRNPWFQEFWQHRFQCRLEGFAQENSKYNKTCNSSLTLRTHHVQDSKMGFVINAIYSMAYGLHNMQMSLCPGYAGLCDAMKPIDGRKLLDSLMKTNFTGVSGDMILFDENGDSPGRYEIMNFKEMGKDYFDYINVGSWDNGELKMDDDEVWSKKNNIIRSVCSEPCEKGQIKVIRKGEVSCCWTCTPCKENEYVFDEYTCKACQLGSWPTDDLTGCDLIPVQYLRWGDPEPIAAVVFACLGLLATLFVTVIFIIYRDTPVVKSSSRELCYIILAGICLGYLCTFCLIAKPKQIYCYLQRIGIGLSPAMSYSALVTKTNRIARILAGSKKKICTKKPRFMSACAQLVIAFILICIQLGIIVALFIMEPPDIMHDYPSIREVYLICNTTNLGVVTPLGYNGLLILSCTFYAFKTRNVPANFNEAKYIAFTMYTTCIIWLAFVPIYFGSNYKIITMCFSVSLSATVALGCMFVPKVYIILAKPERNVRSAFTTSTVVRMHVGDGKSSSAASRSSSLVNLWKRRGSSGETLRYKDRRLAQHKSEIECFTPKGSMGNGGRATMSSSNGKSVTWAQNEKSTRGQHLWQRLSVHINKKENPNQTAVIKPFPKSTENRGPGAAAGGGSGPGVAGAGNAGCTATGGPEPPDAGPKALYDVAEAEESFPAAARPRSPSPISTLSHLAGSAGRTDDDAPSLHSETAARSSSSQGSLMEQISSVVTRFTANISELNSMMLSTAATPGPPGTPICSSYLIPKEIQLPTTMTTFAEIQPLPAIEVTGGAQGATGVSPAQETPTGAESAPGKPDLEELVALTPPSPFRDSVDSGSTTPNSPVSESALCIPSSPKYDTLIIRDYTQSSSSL
Description: (§1) Based on previous results obtained for GET 73, which influences the aminoacidergic neurotransmission in the rat hippocampus, probably through a complex modulation of the metabotropic glutamate receptors subtype 5 (mGluR5) (Beggiato et al., 2013; Ferraro et al., 2011, 2013) the positional isomer ACGET61 was evaluated in vitro in hippocampal slices, by measuring GABA and glutamate levels in different experimental conditions.
The interaction of ACGET61 with the mGluR5 agonist CHPG was explored in KCl stimulated hippocampal slices. […] Specifically, FIG. 5—KCl stimulated Hippocampal slices—K^+ evoked glutamate outflow. The effect of ACGET61 300 pM on the increase in glutamate outflow induced by CHPG 100 μM. ** p<0.01 vs Control; ^∘ p<0.05 vs ACGET61+CHPG.

[2] = test system: Sardinian alcohol preferring (sP) rats; assay: Maintenance of alcohol intake, 2-bottle free choice regimen between alcohol (10% v/v) and water; type: in vivo, rat; settings: acute oral administration
From the text: Anti-alcohol profile of ACGET61 in Sardinian alcohol preferring (sP) rats Sardinian alcohol preferring (sP) rats represents one of the few rat lines selectively bred worldwide for high ethanol preference and consumption (Colombo et al., 2006) and are utilized in multiple experimental procedures validated for the evaluation of different aspects of alcohol drinking. These experimental procedures include Maintenance of alcohol intake, and Operant self-administration of alcohol.
In this procedure sP rats were exposed to a 2-bottle free choice regimen between alcohol (10% v/v) and water. Under this condition, the animals can choose between a bottle containing the alcohol solution and a bottle containing water, and voluntarily consume about 6 g/kg/day of alcohol, with a preference for alcohol of about 90%.

[3] = test system: Sardinian alcohol preferring (sP) rats; assay: Operant self-administration of alcohol, progressive ratio / break point (PR/BP); type: in vivo, rat; settings: for Effective Doses mg/kg: PR/BP model, sP rats
From the text: (§2) In these procedures sP rats were trained to self-administer alcohol or sucrose by pressing a lever, and the amount of work (lever pressing) requested to obtain alcohol, varied according with the aim of the single schedule of reinforcement, Fixed ratio (FR) or Progressive ratio (PR).
(§3) Sucrose solution (3% w/v) was systematically employed in these experiments as alternative reinforcer, in order to assess if test compounds exert a selective effect on the alcohol solution (15% v/v) self-administration.
(§4) In the FR the rat obtain alcohol or sucrose in response to four consecutive lever pressing (FR4), while in the PR the number of lever pressing necessary to obtain alcohol or sucrose increased progressively till the rat stop pressing the lever (Break point; BP). Each FR4 or PR/BP session lasted 30 minutes.

[4] = test system: primary cultures of rat hippocampal neurons; type: cell-based; settings: for Minimum effective concentration for neuroprotective effects: hippocampal neurons chronically exposed to ethanol, cell viability and ROS production
From the text: (§5) The neurotoxic effects of alcohol have been well documented, both in animals and humans, and the hippocampus represents a brain area particular sensitive to the detrimental effects of alcohol. Different preclinical models have been employed for studying the neurotoxic effects of alcohol. One of these models consists in exposing organotypic hippocampal cultures to alcohol, which exerts various effects, including a reduction in cell viability, and an increase in reactive oxygen species (ROS).
(§6) Briefly, primary cultures of rat hippocampal neurons were chronically exposed to ethanol (75 mM; 4 days) and the neuroprotective effects of ACGET61 were assessed by evaluating cell viability (MTT assay), and reactive oxygen species production (rhodamine 123 fluorescence).

[5] = test system: Sardinian alcohol preferring (sP) rats; assay: Operant self-administration of alcohol, fixed ratio FR4; type: in vivo, rat
From the text: as §2, §3, §4

hippocampal slices [6] = assay: Basal GABA and glutamate outflow in hippocampal slices; type: cell-based, rat; settings: 10 and 100 μM
Description: as §1

[7] = test system: primary cultures of rat hippocampal neurons; type: cell-based
From the text: as §5, §6
Ethanol exposure induced a significant increase in the ROS production (p<0.001), measured by the fluorescence emission of rhodamine 123.

hippocampal slices [8] = assay: K+-evoked GABA and glutamate outflow in KCl stimulated hippocampal slices; type: cell-based, rat
Description: as §1
Additional studies aimed at exploring the effect of ACGET61 (10 pM-10 μM) in KCl stimulated hippocampal slices were carried out.

mGluR5 [9] = molecular target: T1, mGluR5; settings: GET73, same model; cited from earlier work
[10] = test system: Sardinian alcohol preferring (sP) rats; settings: 2-bottle free choice model; cited from earlier work
[11] = cited from earlier work
[12] = 0.01-10 μM, cultures not exposed to ethanol
[13] = FR4 model, sP rats, GET 73 tested up to 50

COCCCC(=O)NCc1ccccc1C(F)(F)F [ACGET61, N-[(2-trifluoromethyl)benzyl]-4-methoxybutyramide]
Effect on the increase in K+-evoked glutamate outflow exerted by CHPG (mGluR5 [1]; ACGET61 300 pM): able to counteract, at least in part
Concentration inhibiting CHPG-induced increase of glutamate in hippocampal slices (mGluR5 [1]; KCl stimulated slices): 300 pM
Duration of effect ([2]; ACGET61, Maintenance model, sP rats): 24 h
Effect on water and food intake ([2]; 25 to 100 mg/kg): without affecting water and food intake
Number of lever pressing and break point for alcohol ([3]; 50 and 100 mg/kg, PR, 30 min session): reduced
Response for sucrose ([3]; 50 and 100 mg/kg, PR, sucrose 3% w/v): able to reduce also the response for sucrose
Effective Doses mg/kg ([3]; for alcohol and sucrose): 50-100 * mg/kg
Cellular viability, compound by itself [4, 12]: did not affect cellular viability
Cell viability in ethanol exposed cultures ([4]; 0.1, 1, and 10 μM added 1 hour before and during ethanol 75 mM, 4 days, p<0.05 vs ethanol): prevented the ethanol-induced damage
Minimum effective concentration for neuroprotective effects [4]: 0.1 µM
Effect on FR4 operant self-administration of alcohol (lever responses, alcohol and sucrose intake) ([5]; 100 mg/kg, 30 min session, p<0.05 vs vehicle): selective reducing effect on the reinforcing properties of alcohol
Effective Doses [5, 13]: 100 mg/kg
Effect on basal release of GABA and glutamate (hippocampal slices [6]): No effects
ROS production, compound by itself [7, 12]: did not affect ROS production
ROS production in ethanol exposed cultures ([7]; 0.1, 1, and 10 μM added 1 h before and during ethanol 75 mM, 4 days): prevented the ethanol-induced increase of ROS production
K+-evoked glutamate outflow (hippocampal slices [8]; 100, 300, and 500 pM): modest non significant reduction
Effect on K+-evoked GABA and glutamate outflow (hippocampal slices [8]; concentrations between 10 nM and 10 μM): did not exert overt effects
K+-evoked GABA outflow (hippocampal slices [8]; highest concentration (10 μM)): significant decrease

COCCCC(=O)NCc1ccc(C(F)(F)F)cc1 [GET 73, 4-methoxy-N-[[4-(trifluoromethyl)phenyl]methyl]-butanamide, reference compound]
Effect on PR operant self-administration of alcohol ([3]; GET73, same model): did not demonstrate any effects
Sucrose intake ([3]; PR, 50 mg/kg): significant reduction
Effective Doses mg/kg ([3]; limited to sucrose): 50 # mg/kg
Minimum effective concentration for neuroprotective effects [4]: 1 µM
Effective Doses mg/kg [5, 13]: No effect
Effect in FR4 operant self-administration ([5]; GET73, same model): did not demonstrate any effects
Concentration inhibiting CHPG-induced increase of glutamate in hippocampal slices (mGluR5 [9]): 500 nM

O=C(O)CCCO [GHB, gamma-hydroxybutyric acid]
Alcohol intake of sP rats [10]: reduced

NCC(CC(=O)O)c1ccc(Cl)cc1 (stereo not shown) [baclofen]
Alcohol intake of sP rats [10]: reduced

O=C1CC[C@@]2(O)[C@H]3Cc4ccc(O)c5c4[C@@]2(CCN3CC2CC2)[C@H]1O5 [naltrexone]
Alcohol intake of sP rats [10]: reduced

O=C(O)CCCO [sodium oxybate]
Time to peak plasma concentration ([11]; after oral administration): 30 to 45 min
Bioavailability ([11]; in vivo): about 30%
Half-life ([11]; in vivo): about 30 minutes
